Reference: US20230322767A1, “ARYL SUBSTITUTED PYRROLO-PYRIDINONES AND THERAPEUTIC USES THEREOF” (Bayer Aktiengesellschaft, priority 2020, published 2023)

Key:
CSNK1A1 = CSNK1A1 (Homo sapiens (Human), UniProt P48729); test: CSNK1A1 Assay 2 (ADP-Glo, 1 μM ATP); type: biochemical; conditions: median, read-out: CSNK1A1 Assay 2 IC50 [mol/l] (median)
Experimental: CSNK1A1-inhibitory activity of compounds of the present invention in presence of 1 μM adenosine-tri-phosphate (ATP) was quantified employing the CSNK1A1 assay as described in the following paragraphs. In essence, the enzyme activity is measured by quantification of the adenosine-di-phosphate (ADP), which is generated as a co-product of the enzyme reaction, via the “ADP-Glo™ Kinase Assay” kit from the company Promega. This detection system works as follows: In a first step the ATP not consumed in the kinase reaction is quantitatively converted to cAMP employing an adenylate cyclase (“ADP-Glo-reagent”), then the adenylate cyclase is stopped and the ADP generated in the kinase reaction converted to ATP which generates in a luciferase-based reaction a glow-luminescence signal (“Kinase Detection Reagent”).
As substrate for the kinase reaction the biotinylated peptide biotin-Ahx-KRRRAL-pS-VASLPGL (C-terminus in amide form) was used which can be purchased e.g. from the company Biosyntan (Berlin-Buch, Germany).
For the assay 50 nl of a 100 fold concentrated solution of the test compound in DMSO was pipetted into a white 1536-well microtiter plate (Greiner Bio-One, Frickenhausen, Germany), 2 μL of a solution of CSNK1A1 in aqueous assay buffer [50 mM HEPES pH 7.5, 10% (v/v) glycerol, 10 mM MgCl2, 50 mM NaCl, 1 mM dithiothreitol, 0.01% (w/v) bovine serum albumin, 0.01% (v/v) Triton X-100] were added and the mixture was incubated for 15 min at 22° C. to allow pre-binding of the test compounds to the enzyme before the start of the kinase reaction. […] The concentration of CSNK1A1 was adjusted depending of the activity of the enzyme lot and was chosen appropriate to have the assay in the linear range, a typical concentrations are about 0.0375 ng/μL. The reaction was stopped by the addition of 2.5 μL of “ADP-Glo-reagent” (1:1.5 fold diluted with water) and the resulting mixture was incubated at 22° C. for 1 h to convert the ATP not consumed in the kinase reaction completely […]. Subsequently 2.5 μL of the “kinase detection reagent” (1.2 fold more concentrated than recommended by the producer) were added, the resulting mixture was incubated at 22° C. for 1 h and then the luminescence measured with a suitable measurement instrument (e.g. Viewlux™ from Perkin-Elmer). The amount of emitted light was taken as a measure for the amount of ADP generated and thereby for the activity of the CSNK1A1.

CSNK1D = CSNK1D (Homo sapiens (Human), UniProt P48730); test: CSNK1D Assay (ADP-Glo, 1 μM ATP); type: biochemical; conditions: median, read-out: CSNK1D IC50 [mol/l] (median)
CSNK1D, sequence (P48730 whole entry): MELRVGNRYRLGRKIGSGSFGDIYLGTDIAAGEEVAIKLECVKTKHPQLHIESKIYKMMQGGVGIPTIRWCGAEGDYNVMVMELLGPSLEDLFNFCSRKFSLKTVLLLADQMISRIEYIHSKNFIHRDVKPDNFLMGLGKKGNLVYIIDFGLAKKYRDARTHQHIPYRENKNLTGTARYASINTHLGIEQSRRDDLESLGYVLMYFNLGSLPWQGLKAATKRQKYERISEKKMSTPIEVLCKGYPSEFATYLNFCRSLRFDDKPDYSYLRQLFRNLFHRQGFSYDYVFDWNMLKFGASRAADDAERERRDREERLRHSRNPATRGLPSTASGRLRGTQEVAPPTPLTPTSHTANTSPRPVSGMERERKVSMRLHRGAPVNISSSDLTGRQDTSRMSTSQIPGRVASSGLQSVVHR
Experimental: CSNK1D-inhibitory activity of compounds of the present invention in presence of 1 μM adenosine-tri-phosphate (ATP) was quantified employing the CSNK1 D assay as described in the following paragraphs. In essence, the enzyme activity is measured by quantification of the adenosine-di-phosphate (ADP), which is generated as a co-product of the enzyme reaction, via the “ADP-Glo™ Kinase Assay” kit from the company Promega. This detection system works as follows: In a first step the ATP not consumed in the kinase reaction is quantitatively converted to cAMP employing an adenylate cyclase (“ADP-Glo-reagent”), then the adenylate cyclase is stopped and the ADP generated in the kinase reaction converted to ATP which generates in a luciferase-based reaction a glow-luminescence signal (“Kinase Detection Reagent”).
As substrate for the kinase reaction the biotinylated peptide Btn-Ahx-[…] (C-terminus in amide form) was used which can be purchased e.g. from the company Biosyntan (Berlin-Buch, Germany).
For the assay 50 nl of a 100 fold concentrated solution of the test compound in DMSO was pipetted into a white 1536-well microtiter plate (Greiner Bio-One, Frickenhausen, Germany), 2 μL of a solution of CSNK1D in aqueous assay buffer [50 mM HEPES pH 7.5, 10% (v/v) glycerol, 10 mM MgCl2, 50 mM NaCl, 1 mM dithiothreitol, 0.01% (w/v) bovine serum albumin, 0.01% (v/v) Triton X-100] were added and the mixture was incubated for 15 min at 22° C. to allow pre-binding of the test compounds to the enzyme before the start of the kinase reaction. […] The concentration of CSNK1D was adjusted depending of the activity of the enzyme lot and was chosen appropriate to have the assay in the linear range, a typical concentration is about 0.5 ng/μL. The reaction was stopped by the addition of 2.5 μL of “ADP-Glo-reagent” (1:1.5 fold diluted with water) and the resulting mixture was incubated at 22° C. for 1 h to convert the ATP not consumed in the kinase reaction completely […]. Subsequently 2.5 μL of the “kinase detection reagent” (1.2 fold more concentrated than recommended by the producer) were added, the resulting mixture was incubated at 22° C. for 1 h and then the luminescence measured with a suitable measurement instrument (e.g. Viewlux™ from Perkin-Elmer). The amount of emitted light was taken as a measure for the amount of ADP generated and thereby for the activity of the CSNK1D.

CSNK1A1, sequence (P48729 whole entry): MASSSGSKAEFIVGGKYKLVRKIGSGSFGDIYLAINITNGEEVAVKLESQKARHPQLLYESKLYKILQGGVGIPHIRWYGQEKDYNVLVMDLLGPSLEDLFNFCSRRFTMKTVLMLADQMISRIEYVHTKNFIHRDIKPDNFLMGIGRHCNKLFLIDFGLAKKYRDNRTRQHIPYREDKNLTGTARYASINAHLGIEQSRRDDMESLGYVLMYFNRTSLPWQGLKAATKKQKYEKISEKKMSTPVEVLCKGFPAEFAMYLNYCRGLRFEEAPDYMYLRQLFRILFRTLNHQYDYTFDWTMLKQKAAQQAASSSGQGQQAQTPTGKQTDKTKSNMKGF

Row | SMILES | IC50 (CSNK1A1) [nM] | IC50 (CSNK1D) [nM]
1 | CN1CCc2[nH]c(-c3ccnc(NC(=O)C(CC(F)F)c4ccc(F)cc4)c3)c(-c3cccnc3)c2C1=O (single isomer, unassigned) [Example 11, 4,4-difluoro-2-(4-fluorophenyl)-N-{4-[5-methyl-4-oxo-3-(pyridin-3-yl)-4,5,6,7-tetrahydro-1H-pyrrolo[3,2-c]pyridin-2-yl]pyridin-2-yl}butanamide] | 4.3 | 4.7
2 | CC(C(=O)Nc1cc(-c2[nH]c3c(c2-c2ccccc2)C(=O)NCC3(C)C)ccn1)c1ccc(F)cc1 (single isomer, unassigned) [Example 47, N-[4-(7,7-dimethyl-4-oxo-3-phenyl-4,5,6,7-tetrahydro-1H-pyrrolo[3,2-c]pyridin-2-yl)pyridin-2-yl]-2-(4-fluorophenyl)propanamide] | 13 | 9.6
3 | CN1CCc2[nH]c(-c3ccnc(NC(=O)C(CC(F)F)c4ccc(F)cc4)c3)c(-c3cccnc3)c2C1=O (racemic) [Example 9, 4,4-difluoro-2-(4-fluorophenyl)-N-{4-[5-methyl-4-oxo-3-(pyridin-3-yl)-4,5,6,7-tetrahydro-1H-pyrrolo[3,2-c]pyridin-2-yl]pyridin-2-yl}butanamide] | 7.8 | 9.2
4 | CC(C(=O)Nc1cc(-c2[nH]c3c(c2-c2ccccc2)C(=O)N(C)C2(CCC2)C3)ccn1)c1ccc(F)cc1 (single isomer, unassigned; (+)) [Example 54, (+)-2-(4-fluorophenyl)-N-[4-(5′-methyl-4′-oxo-3′-phenyl-1′,4′,5′,7′-tetrahydrospiro[cyclobutane-1,6′-pyrrolo[3,2-c]pyridin]-2′-yl)pyridin-2-yl]propanamide] | 1.6 | 3.6
5 | CC1(C)CNC(=O)c2c1[nH]c(-c1ccnc(NC(=O)Cc3ccc(F)cc3)c1)c2-c1ccccc1 [Example 42, N-[4-(7,7-dimethyl-4-oxo-3-phenyl-4,5,6,7-tetrahydro-1H-pyrrolo[3,2-c]pyridin-2-yl)pyridin-2-yl]-2-(4-fluorophenyl)acetamide] | 1.2 | 2.1
6 | Cn1cc(CC(F)(F)F)c2[nH]c(-c3ccnc(NC(=O)C(CC(F)F)c4ccc(F)cc4)c3)c(-c3ccccc3)c2c1=O (single isomer, unassigned; (-)) [Example 19, (−)-4,4-difluoro-2-(4-fluorophenyl)-N-{4-[5-methyl-4-oxo-3-phenyl-7-(2,2,2-trifluoroethyl)-4,5-dihydro-1H-pyrrolo[3,2-c]pyridin-2-yl]pyridin-2-yl}butanamide] | 22 | 14
7 | Cc1cn(C)c(=O)c2c(-c3ccccc3)c(-c3ccnc(NC(=O)C(CC(F)F)c4ccc(F)cc4)c3)[nH]c12 (racemic) [Example 40, N-[4-(5,7-dimethyl-4-oxo-3-phenyl-4,5-dihydro-1H-pyrrolo[3,2-c]pyridin-2-yl)pyridin-2-yl]-4,4-difluoro-2-(4-fluorophenyl)butanamide] | 4 | 4
8 | CC1CN(C)C(=O)c2c1[nH]c(-c1ccnc(NC(=O)C(CC(F)F)c3ccc(F)cc3)c1)c2-c1ccccc1 (centres unmarked) [Example 39, N-{4-[5,7-dimethyl-4-oxo-3-phenyl-4,5,6,7-tetrahydro-1H-pyrrolo[3,2-c]pyridin-2-yl]pyridin-2-yl}-4,4-difluoro-2-(4-fluorophenyl)butanamide] | 3 | 3.7
9 | Cn1cc(CC(F)(F)F)c2[nH]c(-c3ccnc(NC(=O)C(CC(F)F)c4ccc(F)cc4)c3)c(-c3ccc(F)cc3)c2c1=O (single isomer, unassigned) [Example 27, 4,4-difluoro-2-(4-fluorophenyl)-N-{4-[3-(4-fluorophenyl)-5-methyl-4-oxo-7-(2,2,2-trifluoroethyl)-4,5-dihydro-1H-pyrrolo[3,2-c]pyridin-2-yl]pyridin-2-yl}butanamide] | 12 | 5.8
10 | CC1(C)CNC(=O)c2c1[nH]c(-c1ccnc(NC(=O)C(CC(F)F)c3ccc(F)cc3)c1)c2-c1ccccc1 (single isomer, unassigned) [Example 45, N-[4-(7,7-dimethyl-4-oxo-3-phenyl-4,5,6,7-tetrahydro-1H-pyrrolo[3,2-c]pyridin-2-yl)pyridin-2-yl]-4,4-difluoro-2-(4-fluorophenyl)butanamide] | 2 | 2.7
11 | CC(C(=O)Nc1cc(-c2[nH]c3c(c2-c2ccccc2)C(=O)N(C)CC3CC(F)(F)F)ccn1)c1ccc(F)cc1 (centres unmarked) [Example 13, 2-(4-fluorophenyl)-N-{4-[5-methyl-4-oxo-3-phenyl-7-(2,2,2-trifluoroethyl)-4,5,6,7-tetrahydro-1H-pyrrolo[3,2-c]pyridin-2-yl]pyridin-2-yl}propanamide] | 3.5 | 3.9
12 | CC(C(=O)Nc1cc(-c2[nH]c3c(CC4CC4)cn(C)c(=O)c3c2-c2ccccc2)ccn1)c1ccc(F)cc1 (racemic) [Example 58, N-{4-[7-(cyclopropylmethyl)-5-methyl-4-oxo-3-phenyl-4,5-dihydro-1H-pyrrolo[3,2-c]pyridin-2-yl]pyridin-2-yl}-2-(4-fluorophenyl)propanamide] | 5.2 | 4
13 | Cn1cc(CC2CC2)c2[nH]c(-c3ccnc(NC(=O)Cc4ccc(F)cc4)c3)c(-c3ccccc3)c2c1=O [Example 56, N-{4-[7-(cyclopropylmethyl)-5-methyl-4-oxo-3-phenyl-4,5-dihydro-1H-pyrrolo[3,2-c]pyridin-2-yl]pyridin-2-yl}-2-(4-fluorophenyl)acetamide] | 4.4 | 4.8
14 | CN1CC(CC(F)(F)F)c2[nH]c(-c3ccnc(NC(=O)C(CC(F)F)c4ccc(F)cc4)c3)c(-c3ccccc3)c2C1=O (centres unmarked) [Example 17, 4,4-difluoro-2-(4-fluorophenyl)-N-{4-[5-methyl-4-oxo-3-phenyl-7-(2,2,2-trifluoroethyl)-4,5,6,7-tetrahydro-1H-pyrrolo[3,2-c]pyridin-2-yl]pyridin-2-yl}butanamide] | 4.7 | 4.3
15 | CC(C(=O)Nc1cc(-c2[nH]c3c(CC(F)(F)F)cn(C)c(=O)c3c2-c2ccc(F)cc2)ccn1)c1ccc(F)cc1 (single isomer, unassigned; (-)) [Example 23, (−)-2-(4-fluorophenyl)-N-{4-[3-(4-fluorophenyl)-5-methyl-4-oxo-7-(2,2,2-trifluoroethyl)-4,5-dihydro-1H-pyrrolo[3,2-c]pyridin-2-yl]pyridin-2-yl}propanamide] | 85 | 37
16 | CN1CC(CC(F)(F)F)c2[nH]c(-c3ccnc(NC(=O)C(CC(F)F)c4ccc(F)cc4)c3)c(-c3ccc(F)cc3)c2C1=O (centres unmarked) [Example 25, 4,4-difluoro-2-(4-fluorophenyl)-N-{4-[3-(4-fluorophenyl)-5-methyl-4-oxo-7-(2,2,2-trifluoroethyl)-4,5,6,7-tetrahydro-1H-pyrrolo[3,2-c]pyridin-2-yl]pyridin-2-yl}butanamide] | 6.4 | 5
